Measurements published in the RepoRT retention time repository (doi:10.1039/c4mb00346b).

Experiment: HILIC, Merck SeQuant ZIC-pHILIC, 150 × 2.1 mm, 5 µm, 0.1 mL/min, estimated dead time 3.3 min; A: acetonitrile; B: water + 10 mM ammonium carbonate; gradient (min/%B) 0/20 30/80
Details: stereoisomer not certain

| Compound | LC retention time [min] |
| --- | --- |
| O=C(O)C1(O)CC(O)C(O)C(O)C1 (configuration not stated) [Quinic acid] | 10.4 |
| Nc1ncnc2c1ncn2C1OC(CSCC(N)C(=O)O)C(O)C1O (configuration not stated) [S-adenosyl-cysteine] | 10.6 |
| Nc1c(C(=O)NC(CC(=O)O)C(=O)O)ncn1C1OC(COP(=O)(O)O)C(O)C1O (configuration not stated) [SAICAR] | 17.1 |
| O=C(CO)C(O)C(O)C(O)C(O)COP(=O)(O)O (configuration not stated) [Sedoheptulose-7-phosphate] | 13.7 |
| NC(CO)C(=O)O (configuration not stated) [Serine] | 13.1 |
| CC(O)C(N)C(=O)O (configuration not stated) [Threonine] | 11.7 |
| C[N+](C)(C)C(Cc1cnc[nH]1)C(=O)[O-] (configuration not stated) [Trimethyl-histidine (hercynine)] | 9.7 |
| C[N+](C)(C)C(Cc1c[nH]c2ccccc12)C(=O)[O-] (configuration not stated) [Trimethyl-tryptophan (hypaphorine)] | 6 |
| NC(Cc1ccc(O)cc1)C(=O)O (configuration not stated) [Tyrosine] | 10.3 |
| O=c1ccn(C2OC(COP(=O)(O)OP(=O)(O)O)C(O)C2O)c(=O)[nH]1 (configuration not stated) [UDP] | 14 |
| O=c1cc[nH]c(=O)[nH]1 [Uracil] | 7.2 |
| O=c1[nH]c(=O)c2[nH]c(=O)[nH]c2[nH]1 [Urate] | 10.7 |
| CC(C)C(N)C(=O)O (configuration not stated) [Valine] | 9.8 |
| O=C(O)C=C(CC(=O)O)C(=O)O [cis-Aconitate] | 15.5 |

Now from value to molecule:

| LC retention time [min] | Compound |
| --- | --- |
| 7.2 | CCC(=O)OC(CC(=O)[O-])C[N+](C)(C)C (configuration not stated) [Propionyl-carnitine] |
| 12.7 | O=C(O)c1cccnc1C(=O)O [Quinolinic acid] |
| 11.2 | Nc1ncnc2c1ncn2C1OC(CSCCC([NH3+])C(=O)[O-])C(O)C1O (configuration not stated) [S-Adenosyl-homocysteine] |
| 14.2 | C[S+](CCC(N)C(=O)[O-])CC1OC(n2cnc3c(N)ncnc32)C(O)C1O (configuration not stated) [S-Adenosyl-methionine] |
| 7.9 | CSc1ncc(CC(C(=O)[O-])[N+](C)(C)C)[nH]1 (configuration not stated) [S-Methyl-ergothioneine] |
| 13.3 | NC(CCCCNC(CCC(=O)O)C(=O)O)C(=O)O (configuration not stated) [Saccharopine] |
| 12.6 | O=C(O)CCC(=O)O [Succinate] |
| 12.1 | NCCS(=O)(=O)O [Taurine] |
| 14.7 | O=P(O)(O)OCC1OC(OC2OC(CO)C(O)C(O)C2O)C(O)C(O)C1O (configuration not stated) [Trehalose-6-phosphate] |
| 13.6 | OCC1OC(OC2OC(CO)C(O)C(O)C2O)C(O)C(O)C1O (configuration not stated) [Trehalose] |
| 20.7 | C[N+](C)(C)CCCCC(N)C(=O)[O-] (configuration not stated) [Trimethyl-lysine] |
| 8.7 | NC(Cc1c[nH]c2ccccc12)C(=O)O (configuration not stated) [Tryptophan] |
| 12.8 | CC(=O)NC1C(OP(=O)(O)OP(=O)(O)OCC2OC(n3ccc(=O)[nH]c3=O)C(O)C2O)OC(CO)C(O)C1O (configuration not stated) [UDP-acetyl-glucosamine] |
| 16.5 | O=C(O)C1OC(OP(=O)(O)OP(=O)(O)OCC2OC(n3ccc(=O)[nH]c3=O)C(O)C2O)C(O)C(O)C1O (configuration not stated) [UDP-glucuronate] |
| 12.6 | O=c1ccn(C2OC(COP(=O)(O)O)C(O)C2O)c(=O)[nH]1 (configuration not stated) [UMP] |
| 15.1 | O=c1ccn(C2OC(COP(=O)(O)OP(=O)(O)OP(=O)(O)O)C(O)C2O)c(=O)[nH]1 (configuration not stated) [UTP] |
| 7.1 | O=c1ccn(C2OC(CO)C(O)C2O)c(=O)[nH]1 (configuration not stated) [Uridine] |
| 14.4 | OC1C(O)C(O)C(O)C(O)C1O (configuration not stated) [myo-Inositol] |
